# Key:
# Test in all cases: Test C preemergence
# Format in all cases: in vivo
# [1] = test system: wheat (winter wheat, Triticum aestivum); details: for Plant response rating (scale of 0 to 100), Wheat: 0 is no effect, 100 is complete control
# Summary of the method: (§1)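 Seeds in loam-sand soil treated preemergence, or plants in peat-based medium sprayed postemergence at 2–18 cm (1- to 4-leaf stage), with compound in a non-phytotoxic solvent mixture containing surfactant. Greenhouse-held 13–15 d, then visually rated against controls on a 0–100 scale (0 = no effect, 100 = complete control); dash = not tested.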
# corn (Zea mays) = details: for Plant response rating (scale of 0 to 100), Corn: 0 is no effect, 100 is complete control
# Summary of the method: as §1
# [2] = test system: nutsedge, yellow (yellow nutsedge, Cyperus esculentus); details: for Plant response rating (scale of 0 to 100), Nutsedge, Yellow: 0 is no effect, 100 is complete control
# Summary of the method: as §1
# [3] = test system: foxtail, giant (giant foxtail, Setaria faberii); details: for Plant response rating (scale of 0 to 100), Foxtail, Giant: 0 is no effect, 100 is complete control
# Summary of the method: as §1
# [4] = test system: crabgrass, large (large crabgrass, Digitaria sanguinalis); details: for Plant response rating (scale of 0 to 100), Crabgrass, Large: 0 is no effect, 100 is complete control
# Summary of the method: as §1
# [5] = test system: velvetleaf (Abutilon theophrasti); details: for Plant response rating (scale of 0 to 100), Velvetleaf: 0 is no effect, 100 is complete control
# Summary of the method: as §1
# [6] = test system: morningglory (Ipomoea coccinea); details: for Plant response rating (scale of 0 to 100), Morningglory: 0 is no effect, 100 is complete control
# Summary of the method: as §1
# [7] = test system: waterhemp (common waterhemp, Amaranthus rudis); details: for Plant response rating (scale of 0 to 100), Waterhemp: 0 is no effect, 100 is complete control
# Summary of the method: as §1
# [8] = test system: lambsquarters (Chenopodium album); details: for Plant response rating (scale of 0 to 100), Lambsquarters: 0 is no effect, 100 is complete control
# Summary of the method: as §1
# soybean (Glycine max) = details: for Plant response rating (scale of 0 to 100), Soybean: 0 is no effect, 100 is complete control
# Summary of the method: as §1
# [9] = test system: Galium (catchweed bedstraw, Galium aparine); details: for Plant response rating (scale of 0 to 100), Galium: 0 is no effect, 100 is complete control
# Summary of the method: as §1
# [10] = test system: ryegrass, Italian (Italian ryegrass, Lolium multiflorum); details: for Plant response rating (scale of 0 to 100), Ryegrass, Italian: 0 is no effect, 100 is complete control
# Summary of the method: as §1
# [11] = test system: blackgrass (Alopecurus myosuroides); details: for Plant response rating (scale of 0 to 100), Blackgrass: 0 is no effect, 100 is complete control
# Summary of the method: as §1
# [12] = test system: pigweed (Amaranthus retroflexus); details: for Plant response rating (scale of 0 to 100), Pigweed: 0 is no effect, 100 is complete control
# Summary of the method: as §1
# [13] = test system: oilseed rape (Brassica napus); details: for Plant response rating (scale of 0 to 100), Oilseed Rape: 0 is no effect, 100 is complete control
# Summary of the method: as §1
# [14] = test system: barnyardgrass (Echinochloa crus-galli); details: for Plant response rating (scale of 0 to 100), Barnyardgrass: 0 is no effect, 100 is complete control
# Summary of the method: as §1
# [15] = 62 g ai/ha, scale 0 to 100, 0 no effect, 100 complete control
smiles,measurement,setting,value
CN1CC(c2ccc(C(C)(F)F)cc2)C(C(=O)Nc2cccc(F)c2F)C1=O (stereo not shown) [Compound 690],"Plant response rating (scale of 0 to 100), Wheat",[1]; 8 g ai/ha,0
same,"Plant response rating (scale of 0 to 100), Wheat",[1]; 16 g ai/ha,5
same,"Plant response rating (scale of 0 to 100), Wheat",[1]; 31 g ai/ha,40
same,"Plant response rating, Wheat",[1]; [15],45
same,"Plant response rating (scale of 0 to 100), Corn",corn (Zea mays); 8 g ai/ha,20
same,"Plant response rating (scale of 0 to 100), Corn",corn (Zea mays); 16 g ai/ha,10
same,"Plant response rating (scale of 0 to 100), Corn",corn (Zea mays); 31 g ai/ha,20
same,"Plant response rating, Corn",corn (Zea mays); [15],70
same,"Plant response rating (scale of 0 to 100), Nutsedge, Yellow",[2]; 8 g ai/ha,0
same,"Plant response rating (scale of 0 to 100), Nutsedge, Yellow",[2]; 16 g ai/ha,0
same,"Plant response rating (scale of 0 to 100), Nutsedge, Yellow",[2]; 31 g ai/ha,0
same,"Plant response rating, Nutsedge, Yellow",[2]; [15],50
same,"Plant response rating (scale of 0 to 100), Foxtail, Giant",[3]; 8 g ai/ha,90
same,"Plant response rating (scale of 0 to 100), Foxtail, Giant",[3]; 16 g ai/ha,95
same,"Plant response rating (scale of 0 to 100), Foxtail, Giant",[3]; 31 g ai/ha,95
same,"Plant response rating, Foxtail, Giant",[3]; [15],98
same,"Plant response rating (scale of 0 to 100), Crabgrass, Large",[4]; 8 g ai/ha,95
same,"Plant response rating (scale of 0 to 100), Crabgrass, Large",[4]; 16 g ai/ha,98
same,"Plant response rating (scale of 0 to 100), Crabgrass, Large",[4]; 31 g ai/ha,98
same,"Plant response rating, Crabgrass, Large",[4]; [15],100
same,"Plant response rating (scale of 0 to 100), Velvetleaf",[5]; 8 g ai/ha,0
same,"Plant response rating (scale of 0 to 100), Velvetleaf",[5]; 16 g ai/ha,0
same,"Plant response rating (scale of 0 to 100), Velvetleaf",[5]; 31 g ai/ha,20
same,"Plant response rating, Velvetleaf",[5]; [15],50
same,"Plant response rating (scale of 0 to 100), Morningglory",[6]; 8 g ai/ha,0
same,"Plant response rating (scale of 0 to 100), Morningglory",[6]; 16 g ai/ha,0
same,"Plant response rating (scale of 0 to 100), Morningglory",[6]; 31 g ai/ha,0
same,"Plant response rating, Morningglory",[6]; [15],0
same,"Plant response rating (scale of 0 to 100), Waterhemp",[7]; 8 g ai/ha,65
same,"Plant response rating (scale of 0 to 100), Waterhemp",[7]; 16 g ai/ha,80
same,"Plant response rating (scale of 0 to 100), Waterhemp",[7]; 31 g ai/ha,90
same,"Plant response rating, Waterhemp",[7]; [15],95
same,"Plant response rating (scale of 0 to 100), Lambsquarters",[8]; 8 g ai/ha,65
same,"Plant response rating (scale of 0 to 100), Lambsquarters",[8]; 16 g ai/ha,65
same,"Plant response rating (scale of 0 to 100), Lambsquarters",[8]; 31 g ai/ha,75
same,"Plant response rating, Lambsquarters",[8]; [15],85
same,"Plant response rating (scale of 0 to 100), Soybean",soybean (Glycine max); 8 g ai/ha,0
same,"Plant response rating (scale of 0 to 100), Soybean",soybean (Glycine max); 16 g ai/ha,0
same,"Plant response rating (scale of 0 to 100), Soybean",soybean (Glycine max); 31 g ai/ha,0
same,"Plant response rating, Soybean",soybean (Glycine max); [15],0
same,"Plant response rating (scale of 0 to 100), Galium",[9]; 8 g ai/ha,100
same,"Plant response rating (scale of 0 to 100), Galium",[9]; 16 g ai/ha,90
same,"Plant response rating (scale of 0 to 100), Galium",[9]; 31 g ai/ha,95
same,"Plant response rating, Galium",[9]; [15],98
same,"Plant response rating (scale of 0 to 100), Ryegrass, Italian",[10]; 8 g ai/ha,0
same,"Plant response rating (scale of 0 to 100), Ryegrass, Italian",[10]; 16 g ai/ha,10
same,"Plant response rating (scale of 0 to 100), Ryegrass, Italian",[10]; 31 g ai/ha,40
same,"Plant response rating, Ryegrass, Italian",[10]; [15],45
same,"Plant response rating (scale of 0 to 100), Blackgrass",[11]; 8 g ai/ha,0
same,"Plant response rating (scale of 0 to 100), Blackgrass",[11]; 16 g ai/ha,0
same,"Plant response rating (scale of 0 to 100), Blackgrass",[11]; 31 g ai/ha,50
same,"Plant response rating, Blackgrass",[11]; [15],55
same,"Plant response rating (scale of 0 to 100), Pigweed",[12]; 8 g ai/ha,50
same,"Plant response rating (scale of 0 to 100), Pigweed",[12]; 16 g ai/ha,60
same,"Plant response rating (scale of 0 to 100), Pigweed",[12]; 31 g ai/ha,75
same,"Plant response rating, Pigweed",[12]; [15],90
same,"Plant response rating (scale of 0 to 100), Oilseed Rape",[13]; 8 g ai/ha,0
same,"Plant response rating (scale of 0 to 100), Oilseed Rape",[13]; 16 g ai/ha,50
same,"Plant response rating (scale of 0 to 100), Oilseed Rape",[13]; 31 g ai/ha,75
same,"Plant response rating, Oilseed Rape",[13]; [15],80
same,"Plant response rating (scale of 0 to 100), Barnyardgrass",[14]; 8 g ai/ha,85
same,"Plant response rating (scale of 0 to 100), Barnyardgrass",[14]; 16 g ai/ha,95
same,"Plant response rating (scale of 0 to 100), Barnyardgrass",[14]; 31 g ai/ha,95
same,"Plant response rating, Barnyardgrass",[14]; [15],98

# Source: patent US12077503B2, “Substituted cyclic amides and their use as herbicides” (FMC CORPORATION, priority 2015, dated 2024)
